From patent US12180183B2, “Water-soluble fluorescent probe and nanoparticals with aggregation-induced emission effect for ovarian cancer and preparation method and use thereof” (HUNAN TARGETING DETECTION TECHNOLOGY CO., LTD, priority 2018, dated 2024)

What was measured:
[1] = Linear relationship between fluorescence intensity of the probe nanoparticles and lysophosphatidic acid concentration; details: compound 3 20 μM, phosphate buffer pH 7.4, incubated 1 min at room temperature
Protocol: (§1) 40 μL of compound 3 (1 mM) in a phosphate buffer solution was taken by using a pipette and placed in an ep-tube. 1960 μL of a phosphate buffer solution (pH=7.4) was added into the ep-tube under an ultrasonic condition so that the final concentration of compound 3 was 20 μM. The mixture was stirred for 30 min under room temperature to generate opalescence. In order to verify nano-aggregation behavior thereof, an average particle size thereof measured by a dynamic light scattering experiment was 600 nm, as shown in FIG. 1.
A series of different volumes of the stock solution of lysophosphatidic acid in the phosphate buffer solution were respectively added to the system prepared in Example 2, so that the final concentrations of lysophosphatidic acid respectively were 0 μM, 0.2 μM, 0.4 μM, 0.8 μM, 1.0 μM, 1.2 μM, 1.4 μM, 1.8 μM, 2.0 μM, 4.0 μM, 8.0 μM, 10.0 μM, 12.0 μM, 14.0 μM, 16.0 μM, 18.0 μM, 20.0 μM, 25.0 μM, 30.0 μM, 33.0 μM. After all of testing solution were prepared, the testing solutions were mixed uniformly with a vortex. After being incubated for 1 min at room temperature, the fluorescence emission intensity thereof at 557 was measured.

[2] = Dynamic light scattering of the self-assembled probe nanoparticles; assay type: physicochemical; details: compound 3 20 μM in phosphate buffer solution pH=7.4, dynamic light scattering
Protocol: as §1

[3] = Selectivity of the fluorescent nanoprobe for detecting lysophosphatidic acid; details: compound 3 10 μM, excitation 400 nm
Protocol: The prepared fluorescent molecular probe solution was used for evaluating the selectivity of the probe to lysophosphatidic acid. An excitation wavelength of the nanoprobe was 400 nm. The concentration of the compound 3 in the system was 10 μM. Lysophosphatidic acid with a final concentration of 50 μM and L-proline, glycerin, sodium phosphate, magnesium sulfate, sodium acetate, sodium nitrate, sodium fluoride, glucose, urea, and lysophosphatidyl choline (LPC) with a final concentration of 1 mM were respectively added into the system. After fully mixing, the systems were incubated for 1 min at room temperature. Then fluorescence emission spectra thereof were measured and the fluorescence emission intensities at 557 nm were recorded.

COc1ccc(-c2nc(-c3cc[n+](CCCCCCCCCCCC[n+]4ccccc4)cc3)n(-c3ccccc3)c2-c2ccc(OC)cc2)cc1 [Compound 3]
lysophosphatidic acid concentration range with good linear relationship to fluorescence intensity at 557 nm [1]: 0 to 33 µM
average particle size [2]: 600 nm
fluorescence emission at 557 nm after addition of lysophosphatidic acid ([3]; lysophosphatidic acid 50 μM, 1 min at room temperature): strong yellow fluorescence
fluorescence emission at 557 nm after addition of other substances ([3]; L-proline, glycerin, sodium phosphate, magnesium sulfate, sodium acetate, sodium nitrate, sodium fluoride, glucose, urea, LPC each 1 mM): could not be observed to generate yellow fluorescence
